The results in this text go back to patent publication US20080146555A1, “Uses of Kinase Inhibitors and Compositions Thereof” (GPC Biotech, Inc, priority 2004, published 2008).

Where a name gives a salt, the structure may show the parent alone. Read-outs that look alike come from different tables or passages of the source.

One assay has as its system HCT-116 cells. Description: Clonogenic survival assay with HCT-116 cells. The assay is classed as cell-based. The following applies: Homo sapiens, 24 hour compound exposure, read-out: Clonogenic survival IC50, HCT-116.
The next assay concerns the target T1, MEK1 (Homo sapiens, UniProt Q02750).
T1 construct: purchased Upstate 14-429
Description: MEK1 kinase assay. The assay is classed as biochemical. The procedure: 1. Assay Dilution Buffer I (ADBI, Catalog #20-108): 20 mM MOPS, pH 7.2, 25 mM β-glycerol phosphate, 5 mM EGTA, 1 mM sodium orthovanadate, 1 mM dithiothreitol. • 2. Magnesium/ATP Cocktail (Catalog #20-113): 500 μM cold ATP and 75 mM magnesium chloride in ADBI. • 3. MEK1, active: Dilute to 0.5-5 ng/μl with ADBI containing 0.03% Brij-35 and 1 mg/ml BSA. Use 5 μl per assay point. • 4. MAP Kinase 2/Erk2, unactive (Catalog #14-198): Use 1 μg per assay point. • 5. MBP Substrate (Catalog #13-104): Prepare a 3.33 mg/ml stock solution with ADBI. Use 2.5 μl per assay for a final concentration of 0.33 mg/ml per assay point. • 6. Magnesium/ATP Cocktail (Catalog #20-113): 75 mM MgCl2 and 500 μM ATP in 20 mM MOPS, pH 7.2, 25 mM β-glycerol phosphate, 5 mM EGTA, 1 mM sodium orthovanadate, 1 mM dithiothreitol.
7. [γ-^32P]ATP: Stock 1 mCi/100 μl (3000 Ci/mmol, obtained from Perkin Elmer, Catalog #BLU002A). Make 10 μl aliquots (100 μCi/vial). Before starting the assay, dilute the Magnesium/ATP Cocktail 1:1 with sterile, distilled water. Then dilute an aliquot of [γ-^32P]ATP to 1 μCi/μl with 90 μl of the diluted Magnesium/ATP Cocktail. […]
• 1. Add 1 μl of ADBI to a microcentrifuge tube. • 2. Add 5 μl of Magnesium/ATP cocktail. • 3. Add 5 μl of MEK1, active (2.5-25 ng) • 4. Add 4 μl (1 μg) of unactive MAP Kinase 2/Erk 2. • 5. Incubate at 30° C. for 30 minutes. • 6. Remove 1 μl of this mixture and add to Stage Two component mixture.
• 1. Add 12.5 μl of ADBI. • 2. Add 2.5 μl of MBP stock solution. • 3. Add 10 μl of diluted [γ-^32P] ATP. • 4. Incubate for at 30° C. 10 minutes. • 5. Transfer a 20 μl aliquot onto the center of a 2 cm×2 cm P81 paper square. • 6. Wash the paper squares three times with 0.75% phosphoric acid for 5 minutes per wash. • 7. Wash the paper squares once with acetone for five minutes. • 8. Transfer the paper squares to a scintillation vial and add 5 ml scintillation cocktail. • 9. Read in scintillation counter. Compare cpm of enzyme samples to cpm of control samples that contain no enzyme (background control).

Where [1] appears, read: kinase panel, 10 μM ATP, read-out: MAPK 1 / MEK1 IC50.
[2] abbreviates: read-out: MAP2K1 Inhibition (IC50).

T1 sequence (Q02750 whole entry, species assumed): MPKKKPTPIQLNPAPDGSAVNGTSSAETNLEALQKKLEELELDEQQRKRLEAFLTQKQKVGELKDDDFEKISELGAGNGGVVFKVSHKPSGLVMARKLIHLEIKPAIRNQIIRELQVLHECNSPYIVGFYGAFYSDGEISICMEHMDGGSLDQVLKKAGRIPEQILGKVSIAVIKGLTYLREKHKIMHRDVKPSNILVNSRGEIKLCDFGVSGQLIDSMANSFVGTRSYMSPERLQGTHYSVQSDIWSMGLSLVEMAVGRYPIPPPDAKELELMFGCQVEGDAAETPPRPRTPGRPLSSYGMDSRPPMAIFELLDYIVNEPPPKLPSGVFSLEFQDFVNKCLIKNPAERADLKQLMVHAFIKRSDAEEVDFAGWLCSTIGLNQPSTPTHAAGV

Regarding `COCCN1CCN(Cc2ccc(-c3n[nH]c4c3C(=O)c3c(NC(=O)NN5CCOCC5)cccc3-4)cc2)CC1` [Compound B16, N-[3-(4-{[4-(2-methoxyethyl)piperazinyl]methyl}phenyl)-4-oxoindeno[2,3-d]pyrazol-5-yl](morpholin-4-ylamino)carboxamide dihydrochloride], the IC50 in the assay with HCT-116 cells, at MEK1 (setting [1]) and at MEK1 (setting [2]) was under 100 nM throughout.

As to `CC(C)N1CCN(C(=O)COc2ccc(-c3n[nH]c4c3C(=O)c3c(NC(=O)NN5CCOCC5)cccc3-4)cc2)CC1` [Compound A37], the values for the IC50 with HCT-116 cells, on MEK1 (setting [1]) and on MEK1 (setting [2]) were under 50 nM, 10 to 100 nM and under 50 nM, respectively.
